Several values for one entry are separate records, joined by “and”; a condition that tells them apart may be missing. Identical values can stand only once.
Experiments:
[1] = test system: ECHCG; experiment: Example II in-water applied, greenhouse, transplanted paddy rice weeds; assay type: in vivo, Echinochloa crusgalli (L.) Beauv.
Method: (§1) Applications were made by injecting with a pipetter appropriate amounts of the application solutions, individually and sequentially, into the aqueous layer of the paddy. Control plants were treated in the same manner with the solvent blank. Applications were made so that all treated plant material received the same concentrations of acetone and crop oil concentrate.
(§2) The treated plants and control plants were placed in a greenhouse as described above and water was added as needed to maintain a paddy flood. After approximately 3 weeks the condition of the test plants as compared with that of the untreated plants was determined visually and scored on a scale of 0 to 100 percent where 0 corresponds to no injury or growth inhibition and 100 corresponds to complete kill.
(§3) Colby's equation was used to determine the herbicidal effects expected from the mixtures (Colby, S. R. 1967. Calculation of the synergistic and antagonistic response of herbicide combinations. Weeds 15:20-22.).
(§4) The following equation was used to calculate the expected activity of mixtures containing two active ingredients, A and B: Expected=A+B−(A×B/100)

[2] = test system: ECHOR; experiment: as above; assay type: in vivo, Echinochloa oryzoides (Ard.) Fritsch
Method: (§5) Weed seeds or nutlets of the desired test plant species were planted in puddled soil (mud) prepared by mixing a shredded, non-sterilized mineral soil (50.5 percent silt, 25.5 percent clay, and 24 percent sand, with a pH of about 7.6 and an organic matter content of about 2.9 percent) and water at a 1:1 volumetric ratio. The prepared mud was dispensed in 365 mL aliquots into 16-ounce (oz.) non-perforated plastic pots with a surface area of 86.59 square centimeters (cm^2) leaving a headspace of 3 centimeters (cm) in each pot. Mud was allowed to dry overnight prior to planting or transplanting. Rice seeds were planted in Sun Gro MetroMix® 306 planting mixture, which typically has a pH of 6.0 to 6.8 and an organic matter content of about 30 percent, in plastic plug trays. Seedlings at the second or third leaf stage of growth were transplanted into 860 mL of mud contained in 32-oz. non-perforated plastic pots with a surface area of 86.59 cm^2 4 days prior to herbicide application. The paddy was created by filling the headspace of the pots with 2.5 to 3 cm of water. […] The plants were grown for 4-22 days in a greenhouse with an approximate 14 hr. photoperiod which was maintained at about 29° C. during the day and 26° C. during the night. Nutrients were added as Osmocote® (19:6:12, N:P:K+minor nutrients) at 2 g per 16-oz. pot and 4 g per 32-oz. pot. Water was added on a regular basis to maintain the paddy flood, and supplemental lighting was provided with overhead metal halide 1000-Watt lamps as necessary. The plants were employed for testing when they reached the first through fourth true leaf stage.
(§6) Treatments consisted of the acid or esters of 4-amino-3-chloro-5-fluoro-6-(4-chloro-2-fluoro-3-methoxy-phenyl)pyridine-2-carboxylic acid (compound A) each formulated as an SC (suspension concentrate) and various herbicidal components alone and in combination.
(§7) For formulated compounds, a measured amount was placed in an individual 100 or 200 mL glass vial and was dissolved in a volume of 1.25% (v/v) Agri-Dex® crop oil concentrate to obtain application solutions.
as §1, §2, §3, §4

[3] = test system: SCPMA; experiment: as above; assay type: in vivo, Schoenoplectus maritimus (L.) Lye
Method: as §5, §6, §7, §1, §2, §3, §4

[4] = test system: ECHCG; experiment: Example I postemergence foliar-applied, greenhouse, direct seeded rice weeds; assay type: in vivo, Echinochloa crusgalli (L.) Beauv.
Source text: Seeds or nutlets of the desired test plant species were planted in a soil matrix prepared by mixing a loam or sandy loam soil (e.g., 28.6 percent silt, 18.8 percent clay, and 52.6 percent sand, with a pH of about 5.8 and an organic matter content of about 1.8 percent) and calcareous grit in an 80 to 20 ratio. The soil matrix was contained in plastic pots with a volume of 1 quart and a surface area of 83.6 square centimeters (cm^2). When required to ensure good germination and healthy plants, a fungicide treatment and/or other chemical or physical treatment was applied. The plants were grown for 8-22 days in a greenhouse with an approximate 14 hr. photoperiod which was maintained at about 29° C. during the day and 26° C. during the night. Nutrients (Peters Excel® 15-5-15 5-Ca 2-Mg and iron chelate) were applied in the irrigation solution as needed and water was added on a regular basis. Supplemental lighting was provided with overhead metal halide 1000-Watt lamps as necessary. The plants were employed for testing when they reached the first through fourth true leaf stage.
Treatments consisted of the acid or esters of 4-amino-3-chloro-5-fluoro-6-(4-chloro-2-fluoro-3-methoxy-phenyl)pyridine-2-carboxylic acid (Compound A), each formulated as an SC (suspension concentrate), and various herbicidal components alone and in combination.
Other herbicidal components were applied on an acid equivalent (ae) or active ingredient (ai) basis and included acetyl coA carboxylase (ACCase)-inhibiting herbicides (cyclohexanedione and aryloxyphenoxypropionate chemical classes) cyhalofop-butyl formulated as Clincher® SF (285 gr ai/L EC), diclofop-methyl formulated as Hoelon® 3EC, fenoxaprop-p-ethyl+isoxadifen-ethyl formulated as RiceStar® HT (0.58 lb./gal EC), fenoxaprop-p-ethyl+mefenpyr diethyl formulated as Puma® IEC, metamifop formulated as Metamifop EC, haloxyfop-methyl formulated as Gallant Super®, fluazifop-p-butyl formulated as Fusilade® DX, quizalofop-p-ethyl formulated as Assure® II, profoxydim formulated as Aura® 20EC, clethodim applied as Intensity®, sethoxydim formulated as Poast®, and tralkoxydim formulated as Achieve®.
Treatment requirements were calculated based upon the rates being tested, the concentration of active ingredient or acid equivalent in the formulation, and a 12 mL application volume at a rate of 187 L/ha.
For treatments comprised of formulated compounds, measured amounts of compounds were placed individually in 25 mL glass vials and diluted in a volume of 1.25% (v/v) Agri-Dex® crop oil concentrated to obtain 12× stock solutions. […] Application solutions were prepared by adding an appropriate amount of each stock solution (e.g., 1 mL) and diluted to the appropriate final concentrations with the addition of 10 mL of an aqueous mixture of 1.25% (v/v) crop oil concentrate so that the final spray solutions contained 1.25+/−0.05% (v/v) crop oil concentrate.
All stock solutions and applications solutions were visually inspected for compound compatibility prior to application. Spray solutions were applied to the plant material with an overhead Mandel track sprayer equipped with a 8002E nozzles calibrated to deliver 187 L/ha over an application area of 0.503 m^2 at a spray height of 18 to 20 inches (46 to 50 cm) above average plant canopy height. Control plants were sprayed in the same manner with the solvent blank.
as §2, with “watered by sub-irrigation” for “water was added as needed”, “prevent wash-off of the test compounds.” for “maintain a paddy flood.”, “weeks,” for “weeks”, “kill. […]” for “kill.”

## CCC/C(=N\OCC(C)Oc1ccc(Cl)cc1)C1=C(O)CC(C2CCCSC2)CC1=O (stereo not drawn) [Profoxydim, 2-[1-[[2-(4-chlorophenoxy)propoxy]imino]butyl]-3-hydroxy-5-(tetrahydro-2H-thiopyran-3-yl)-2-cyclohexen-1-one, reference compound]
[1]; 50 gai/ha
  Visual Weed Control (%) - 22 DAA ECHCG Obs: 30%
[2]; in-water, 25 gai/ha
  Visual Weed Control (%) - 21 DAA ECHOR Obs: 0%

## COc1c(Cl)ccc(-c2nc(C(=O)O)c(Cl)c(N)c2F)c1F [Compound A Acid, 4-amino-3-chloro-6-(4-chloro-2-fluoro-3-methoxyphenyl)-5-fluoropyridine-2-carboxylic acid]
[1]; 16 gae/ha
  Visual Weed Control (%) - 22 DAA ECHCG Obs: 20%
[1]; 32 gae/ha
  Visual Weed Control (%) - 22 DAA ECHCG Obs: 25%
[2]; 8.75 gae/ha in-water
  Visual Weed Control (%) - 25 DAA ECHOR Obs: 0%
[2]; 17.5 gae/ha in-water
  Visual Weed Control (%) - 25 DAA ECHOR Obs: 0%
[2]; 35 gae/ha in-water
  Visual Weed Control (%) - 25 DAA ECHOR Obs: 40%
[2]; in-water, 8.75 gae/ha
  Visual Weed Control (%) - 21 DAA ECHOR Obs: 0%
[2]; in-water, 10.6 gae/ha
  Visual Weed Control (%) - 21 DAA ECHOR Obs: 0%
[2]; in-water, 21.2 gae/ha
  Visual Weed Control (%) - 21 DAA ECHOR Obs: 15%
[2]; in-water, 35 gae/ha
  Visual Weed Control (%) - 21 DAA ECHOR Obs: 15% and 30%
[2]; in-water, 42.4 gae/ha
  Visual Weed Control (%) - 21 DAA ECHOR Obs: 15%
[2]; in-water, Compound A Acid 8.75 gae/ha
  Visual Weed Control (%) - 21 DAA ECHOR Obs: 10%
[2]; in-water, Compound A Acid 17.5 gae/ha
  Visual Weed Control (%) - 21 DAA ECHOR Obs: 15%
[2]; in-water, Compound A Acid 35 gae/ha
  Visual Weed Control (%) - 21 DAA ECHOR Obs: 20%
[3]; 35 gae/ha
  Visual Weed Control (%) - 21 DAA SCPMA Obs: 0%

## COc1c(Cl)ccc(-c2nc(C(=O)OCc3ccccc3)c(Cl)c(N)c2F)c1F [Compound A Benzyl Ester, benzyl ester of 4-amino-3-chloro-5-fluoro-6-(4-chloro-2-fluoro-3-methoxy-phenyl)pyridine-2-carboxylic acid]
[4]; 8 gae/ha
  Visual Weed Control (%) - 22 DAA ECHCG Obs: 35%
[4]; 16 gae/ha
  Visual Weed Control (%) - 22 DAA ECHCG Obs: 65%
[4]; 32 gae/ha
  Visual Weed Control (%) - 22 DAA ECHCG Obs: 80%
[1]; 4.38 gae/ha
  Visual Weed Control (%) - 21 DAA ECHCG Obs: 15%
[1]; 8 gae/ha
  Visual Weed Control (%) - 22 DAA ECHCG Obs: 50%
[1]; 16 gae/ha
  Visual Weed Control (%) - 22 DAA ECHCG Obs: 60%
[1]; 17.5 gae/ha
  Visual Weed Control (%) - 21 DAA ECHCG Obs: 75%
[1]; 32 gae/ha
  Visual Weed Control (%) - 22 DAA ECHCG Obs: 99%
[2]; in-water, 4.38 gae/ha
  Visual Weed Control (%) - 21 DAA ECHOR Obs: 0%
[2]; in-water, 8 gae/ha
  Visual Weed Control (%) - 21 DAA ECHOR Obs: 10% and 8%
[2]; in-water, 8.75 gae/ha
  Visual Weed Control (%) - 21 DAA ECHOR Obs: 10% and 15%
  Visual Weed Control (%) - 25 DAA ECHOR Obs: 85%
[2]; in-water, 17.5 gae/ha
  Visual Weed Control (%) - 25 DAA ECHOR Obs: 90%
[2]; in-water, 35 gae/ha
  Visual Weed Control (%) - 25 DAA ECHOR Obs: 100%
[2]; in-water, 48 gae/ha
  Visual Weed Control (%) - 21 DAA ECHOR Obs: 78%
[2]; in-water, 96 gae/ha
  Visual Weed Control (%) - 21 DAA ECHOR Obs: 80%
[3]; 35 gae/ha
  Visual Weed Control (%) - 19 DAA SCPMA Obs: 0%

## CCCCOC(=O)[C@@H](C)Oc1ccc(Oc2ccc(C#N)cc2F)cc1 [Cyhalofop-butyl, butyl(2R)-2-[4-(4-cyano-2-fluorophenoxy)phenoxy]propanoate, reference compound]
[2]; 90 gai/ha, in-water
  Visual Weed Control (%) - 25 DAA ECHOR Obs: 0%
[2]; in-water, 90 gai/ha
  Visual Weed Control (%) - 25 DAA ECHOR Obs: 0%
[3]; 180 gai/ha
  Visual Weed Control (%) - 19 DAA SCPMA Obs: 0%

## CCOC(=O)[C@@H](C)Oc1ccc(Oc2cnc3cc(Cl)ccc3n2)cc1 [Quizalofop-p-ethyl, ethyl(2R)-2-[4-[(6-chloro-2-quinoxalinyl)oxy]phenoxy]propanoate, reference compound]
[4]; 3.75 gai/ha
  Visual Weed Control (%) - 22 DAA ECHCG Obs: 20%
[4]; 7.5 gai/ha
  Visual Weed Control (%) - 22 DAA ECHCG Obs: 30%
[1]; 15 gai/ha
  Visual Weed Control (%) - 21 DAA ECHCG Obs: 50%
[1]; 30 gai/ha
  Visual Weed Control (%) - 21 DAA ECHCG Obs: 100%
[2]; in-water, 15 gai/ha
  Visual Weed Control (%) - 21 DAA ECHOR Obs: 0%
[2]; in-water, 30 gai/ha
  Visual Weed Control (%) - 21 DAA ECHOR Obs: 60%

## C[C@@H](Oc1ccc(Oc2nc3ccc(Cl)cc3o2)cc1)C(=O)N(C)c1ccccc1F [Metamifop, (2R)-2-[4-[(6-chloro-2-benzoxazolyl)oxy]phenoxy]-N-(2-fluorophenyl)-N-methylpropanamide]
[4]; 9.38 gai/ha
  Visual Weed Control (%) - 22 DAA ECHCG Obs: 0%
[4]; 18.75 gai/ha
  Visual Weed Control (%) - 22 DAA ECHCG Obs: 40%
[4]; 37.5 gai/ha
  Visual Weed Control (%) - 22 DAA ECHCG Obs: 70%
[2]; in-water, 50 gai/ha
  Visual Weed Control (%) - 21 DAA ECHOR Obs: 20%
[3]; 75 gai/ha
  Visual Weed Control (%) - 21 DAA SCPMA Obs: 0%
[3]; 150 gai/ha
  Visual Weed Control (%) - 21 DAA SCPMA Obs: 0%
